# Experimental data from patent US9986723B2, “Screen and use of therapeutics for pancreatic ductal adenocarcinoma” (The Board of Regents of the University of Texas System, priority 2014, dated 2018).
# Experiments:
# Type in all cases: cell-based, human
# AKT = experiment: Gas6-induced phosphorylated Akt in Panc1 cells; conditions: warfarin 1 μM, Gas6 1.3 nM
# Protocol: (FIG. 24A) HEK293 cells engineered to stably express recombinant Gas6 were grown in the presence of Vitamin K or Vitamin K+warfarin. Gas6 levels and γ-carboxylation were assayed by immunoblotting conditioned media. Conditioned media from untransfected HEK293 cells was used as a negative control. (FIG. 24B) Panc1 cells were grown overnight in media with 1% serum with no additions (NT), warfarin (2 μM) or BGB324 (2 μM). Lysates were probed for total Axl (tAxl) and phosphorylated Axl (pAxl). (FIG. 24C) Panc1 cells were grown in the presence of control media, Vitamin K, warfarin or warfarin+Vitamin K. The level of phosphorylated Axl (pAXL, red) was determined by immunofluorescence. (FIG. 24D) Panc1 cells were grown overnight in media with 1% serum with no additions (control), warfarin (1 μM), Gas6 (1.3 nM) or Gas6+warfarin. Lysates were probed for phosphorylated Akt (pAkt) and actin. (FIG. 24E) Lysates from Panc1 tumors harvested from mice treated with control or warfarin were probed for expression of tAxl, pAxl, actin, pAKT, tAKT, and cleaved Parp. (FIG. 24F) The effect of warfarin on cell migration was assessed by a ‘scratch’ assay. Monolayers of the indicted cells were wounded with a pipet tip. The cells were incubated in media containing 2% serum+/−warfarin (2 μM) or media containing 2% serum+Gas6 (1.3 nM)+/−warfarin.
# [1] = tested on: AsPC-1, Mia PaCa-2, and Capan-1 cells; experiment: Soft agar anchorage-independent growth assay; conditions: warfarin 2 μM, 14 days; Axl-expressing cells
# Protocol: FIGS. 25A-I. Axl inhibition reduces colony formation and enhances chemotherapy. (FIGS. 25A-C) parental Mia PaCa-2 cells or Mia PaCa-2 cells stably transfected with shRNA targeting Axl (Mia shAxl) were grown as spheroids in matrigel for 7 days in the presence or absence of warfarin (200 ng/ml), n=4/condition. Mia PaCa-2 cell colonies form large stellate colonies characteristic of invasive tumor growth. Colonies and cognate cell projections were imaged (FIG. 25A) with a Nikon Phase contrast microscope using 40× and 200× magnification. Mean total colony number (FIG. 25B) and total colony area+/−s.d. (FIG. 25C) reflective of invasive growth were calculated using Image J image analysis. Scale bar, 100 μm. ****, p<0.001 vs Mia PaCa-2 NT; ##, p<0.01; ###, p<0.005. by ANOVA with Tukey's MCT. […] (FIG. 25E) liver metastases were quantified after intrasplenic injection of C5LM2 cells. […] Mice were sacrificed when control treated animals were moribund and primary and metastatic burden was determined. […]
# Anchorage-independent growth assays were performed by coating 12 well plates with 0.5-0.75% agar. […] Fresh media and drug were added twice weekly and colonies were measured by light microscopy at 2 weeks; assays were performed in quadruplicate.
# Capan-EMT cells = Capan-EMT cells (Capan-1 on collagen with TGFβ), ICC; conditions: SFM overnight
# Protocol: FIGS. 32A-C. Acquisition of Axl expression sensitizes Capan-EMT cells to warfarin. (FIG. 32A) Capan-1 cells cultured on collagen were analyzed by flow cytometry for Axl expression. The positive gate was set using a control IgG and 10C9 was used to detect Axl. […] (FIG. 32B) Capan-EMT cells were cultured in SFM overnight in the absence (control) or presence of warfarin and expression Axl, E-Cadherin, and cleaved caspase 3 was determined by ICC. Representative images are shown. (FIG. 32C) The expression Zeb1, Snail, and Twist was determined by qPCR in Capan-1 and Capan-EMT cells.
# In vitro epithelial to mesenchymal transition assays. In vitro, mesenchymal transition was induced by incubating cells on chamber slides coated with collagen and adding TGF-β (20 ng/ml) to media with 5% serum for 48 hours. Media was then replaced with 1% serum and fresh TGF-β with or without warfarin (2 μM) for an additional 48 hours. Cells were the evaluated by immunocytochemistry by fixing in acetone, permeabilizing with 0.5% Brij, and incubating overnight with primary antibody: Axl, p-Axl, (R&D Systems); Vimentin (phosphoSolutions); Zeb1, E-Cadherin, and β-Catenin (Santa Cruz). The effect of Gas6 signaling on EMT was evaluated by seeding cells overnight and incubating with Gas6 (100 ng/ml) with or without warfarin for 48 hours. Cells were evaluated by ICC as described.
compound,measurement,setting,value
CC(=O)CC(c1ccccc1)c1c(O)c2ccccc2oc1=O (racemic) [Warfarin],Gas6-induced activation of AKT,AKT,inhibited
same,anchorage independent growth,[1],inhibited
same,"sensitivity to warfarin (Axl, E-cadherin, cleaved caspase-3)",Capan-EMT cells,sensitive
